Marks after values point to notes of the source that are not given here.
System: patients with relapsed/refractory immune thrombocytopenia
Assay: Phase 1/2 study (NCT03395210) Part A, safety;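 note: adverse events graded by NCI CTCAE version 4.0, with worsening of pre-existing conditions counted as adverse events, analysed in the Safety Population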
[1] = 45 patients who initiated 400 bid

CC(C)(C=C(C#N)C(=O)N1CCC[C@@H](n2nc(-c3ccc(Oc4ccccc4)cc3F)c3c(N)ncnc32)C1)N1CCN(C2COC2)CC1 [rilzabrutinib, (R)-2-[3-[4-amino-3-(2-fluoro-4-phenoxy-phenyl)pyrazolo[3,4-d]pyrimidin-1-yl]piperidine-1-carbonyl]-4-methyl-4-[4-(oxetan-3-yl)piperazin-1-yl]pent-2-enenitrile]
patients with ≥1 treatment-related, treatment-emergent adverse event (45 patients who initiated 400 mg bid): 84% | treatment-related any-grade TEAE: diarrhea [1]: 36% | treatment-related any-grade TEAE: fatigue [1]: 9% | treatment-related any-grade TEAE: nausea [1]: 31% | patients with ≥1 treatment-related, treatment-emergent adverse event (60 patients who initiated rilzabrutinib at all doses): 52% | All related TEAEs, Treatment-Related TEAEs, Grade 1 (N = 45 initiated 400 mg bid): 23 (51) number of patients (percent) | All related TEAEs, Treatment-Related TEAEs, Grade 2 (N = 45 initiated 400 mg bid): 15 (33) number of patients (percent) | Diarrhea, Treatment-Related TEAEs, Grade 1 (N = 45 initiated 400 mg bid): 13 (29) number of patients (percent) | Diarrhea, Treatment-Related TEAEs, Grade 2 (N = 45 initiated 400 mg bid): 3 (7) number of patients (percent) | Fatigue, Treatment-Related TEAEs, Grade 1 (N = 45 initiated 400 mg bid): 3 (7) number of patients (percent) | Fatigue, Treatment-Related TEAEs, Grade 2 (N = 45 initiated 400 mg bid): 1 (2) number of patients (percent) | Nausea, Treatment-Related TEAEs, Grade 1 (N = 45 initiated 400 mg bid): 12 (27) number of patients (percent) | Nausea, Treatment-Related TEAEs, Grade 2 (N = 45 initiated 400 mg bid): 2 (4) number of patients (percent) | Vomiting, Treatment-Related TEAEs, Grade 1 (N = 45 initiated 400 mg bid): 2 (4) number of patients (percent) | Vomiting, Treatment-Related TEAEs, Grade 2 (N = 45 initiated 400 mg bid): 1 (2) number of patients (percent) | Abdominal discomfort, TEAEs Due to Any Cause, Any grade (Safety Population, N = 60): 1 (2) number of patients (percent) | Abdominal discomfort, TEAEs Due to Any Cause, Grade 1 (Safety Population, N = 60): 1 (2) number of patients (percent) | Abdominal discomfort, Treatment-Related TEAEs, Any grade (Safety Population, N = 60): 1 (2) number of patients (percent) | Abdominal discomfort, Treatment-Related TEAEs, Grade 1 (Safety Population, N = 60): 1 (2) number of patients (percent) | Abdominal distension, TEAEs Due to Any Cause, Any grade (Safety Population, N = 60): 6 (10) number of patients (percent) | Abdominal distension, TEAEs Due to Any Cause, Grade 1 (Safety Population, N = 60): 6 (10) number of patients (percent) | Abdominal distension, Treatment-Related TEAEs, Any grade (Safety Population, N = 60): 4 (7) number of patients (percent) | Abdominal distension, Treatment-Related TEAEs, Grade 1 (Safety Population, N = 60): 4 (7) number of patients (percent) | Abdominal pain, TEAEs Due to Any Cause, Any grade (Safety Population, N = 60): 3 (5) number of patients (percent) | Abdominal pain, TEAEs Due to Any Cause, Grade 1 (Safety Population, N = 60): 1 (2) number of patients (percent) | Abdominal pain, TEAEs Due to Any Cause, Grade 2 (Safety Population, N = 60): 2 (3) number of patients (percent) | Abdominal pain, Treatment-Related TEAEs, Any grade (Safety Population, N = 60): 2 (3) number of patients (percent) | Abdominal pain, Treatment-Related TEAEs, Grade 2 (Safety Population, N = 60): 2 (3) number of patients (percent) | Abnormal dreams, TEAEs Due to Any Cause, Any grade (Safety Population, N = 60): 1 (2) number of patients (percent) | Abnormal dreams, TEAEs Due to Any Cause, Grade 1 (Safety Population, N = 60): 1 (2) number of patients (percent) | Abnormal dreams, Treatment-Related TEAEs, Any grade (Safety Population, N = 60): 1 (2) number of patients (percent) | Abnormal dreams, Treatment-Related TEAEs, Grade 1 (Safety Population, N = 60): 1 (2) number of patients (percent) | Akathisia, TEAEs Due to Any Cause, Any grade (Safety Population, N = 60): 1 (2) number of patients (percent) | Akathisia, TEAEs Due to Any Cause, Grade 1 (Safety Population, N = 60): 1 (2) number of patients (percent) | Akathisia, Treatment-Related TEAEs, Any grade (Safety Population, N = 60): 1 (2) number of patients (percent) | Akathisia, Treatment-Related TEAEs, Grade 1 (Safety Population, N = 60): 1 (2) number of patients (percent) | Alopecia, TEAEs Due to Any Cause, Any grade (Safety Population, N = 60): 2 (3) number of patients (percent) | Alopecia, TEAEs Due to Any Cause, Grade 1 (Safety Population, N = 60): 2 (3) number of patients (percent) | Anemia, TEAEs Due to Any Cause, Any grade (Safety Population, N = 60): 4 (7) number of patients (percent) | Anemia, TEAEs Due to Any Cause, Grade 2 (Safety Population, N = 60): 2 (3) number of patients (percent) | Anemia, TEAEs Due to Any Cause, Grade 3/4 (Safety Population, N = 60): 2 (3) number of patients (percent) | Any TEAE, TEAEs Due to Any Cause, Any grade (Safety Population, N = 60): 48 (80) number of patients (percent) | Any TEAE, TEAEs Due to Any Cause, Grade 1 (Safety Population, N = 60): 43 (72) number of patients (percent) | Any TEAE, TEAEs Due to Any Cause, Grade 2 (Safety Population, N = 60): 30 (50) number of patients (percent) | Any TEAE, TEAEs Due to Any Cause, Grade 3/4 (Safety Population, N = 60): 8 (13)^† number of patients (percent) | Any TEAE, Treatment-Related TEAEs, Any grade (Safety Population, N = 60): 31 (52) number of patients (percent) | Any TEAE, Treatment-Related TEAEs, Grade 1 (Safety Population, N = 60): 27 (45) number of patients (percent) | Any TEAE, Treatment-Related TEAEs, Grade 2 (Safety Population, N = 60): 15 (25) number of patients (percent) | Arthralgia, TEAEs Due to Any Cause, Any grade (Safety Population, N = 60): 5 (8) number of patients (percent) | Arthralgia, TEAEs Due to Any Cause, Grade 1 (Safety Population, N = 60): 3 (5) number of patients (percent) | Arthralgia, TEAEs Due to Any Cause, Grade 2 (Safety Population, N = 60): 2 (3) number of patients (percent) | Arthropod bite, TEAEs Due to Any Cause, Any grade (Safety Population, N = 60): 3 (5) number of patients (percent) | Arthropod bite, TEAEs Due to Any Cause, Grade 1 (Safety Population, N = 60): 3 (5) number of patients (percent) | Back pain, TEAEs Due to Any Cause, Any grade (Safety Population, N = 60): 8 (13) number of patients (percent) | Back pain, TEAEs Due to Any Cause, Grade 1 (Safety Population, N = 60): 7 (12) number of patients (percent)

From patent US20250255874A1, “Methods for Treating Immune Thrombocytopenia By Administering (R)-2-[3-[4-Amino-3-(2-Fluoro-4-Phenoxy-Phenyl)Pyrazolo[3,4-D]Pyrimidin-1-YL]Piperidine-1-Carbonyl]-4-Methyl-4-[4-(Oxetan-3-YL)Piperazin-1-YL]Pent-2-Enentrile” (Principia Biopharma Inc., priority 2022, published 2025)
